# Results reported in ChEMBL document CHEMBL3044741, “Synthesis of novel biologically active methylene derivatives of sydnones” (Med Chem Res, 2013).
# How the values were obtained:
# Type in all cases: functional
# [1] = tested on: SNB-75; assay: Cytotoxicity against human SNB75 assessed as cell growth at high concentration
# [2] = tested on: A549; assay: Cytotoxicity against human A549 assessed as cell growth at high concentration
# [3] = tested on: RPMI-8226; assay: Cytotoxicity against human RPMI8226 assessed as cell growth at high concentration
# [4] = tested on: EKVX; assay: Cytotoxicity against human EKVX assessed as cell growth at high concentration
# [5] = tested on: UO-31; assay: Cytotoxicity against human UO31 assessed as cell growth at high concentration
# [6] = tested on: Hs-578T; assay: Cytotoxicity against human Hs 578T assessed as cell growth at high concentration
# [7] = tested on: SN12C; assay: Cytotoxicity against human SN12C assessed as cell growth at high concentration
# [8] = tested on: SNB-19; assay: Cytotoxicity against human SNB19 assessed as cell growth at high concentration
# [9] = tested on: SK-MEL-5; assay: Cytotoxicity against human SK-MEL-5 assessed as cell growth at high concentration
# [10] = tested on: HCC 2998; assay: Cytotoxicity against human HCC2998 assessed as cell growth at high concentration
# [11] = tested on: TK-10; assay: Cytotoxicity against human TK10 assessed as cell growth at high concentration
# [12] = tested on: Candida albicans; assay: Antifungal activity against Candida albicans MTCC 227
# [13] = tested on: Pseudomonas aeruginosa; assay: Antibacterial activity against Pseudomonas aeruginosa MTCC 424 after 24 hrs by broth dilution method; settings: MTCC 424, 24 h
# [14] = tested on: SW-620; assay: Cytotoxicity against human SW620 assessed as cell growth at high concentration
# [15] = tested on: M14; assay: Cytotoxicity against human M14 assessed as cell growth at high concentration
# [16] = tested on: COLO 205; assay: Cytotoxicity against human COLO205 assessed as cell growth at high concentration
# [17] = tested on: T47D; assay: Cytotoxicity against human T47D assessed as cell growth at high concentration
# [18] = tested on: UACC-257; assay: Cytotoxicity against human UACC257 assessed as cell growth at high concentration
# [19] = tested on: HCT-116; assay: Cytotoxicity against human HCT116 assessed as cell growth at high concentration
# [20] = tested on: K562; assay: Cytotoxicity against human K562 assessed as cell growth at high concentration
# [21] = tested on: SK-MEL-28; assay: Cytotoxicity against human SK-MEL-28 assessed as cell growth at high concentration
# [22] = tested on: MDA-MB-468; assay: Cytotoxicity against human MDA-MB-468 assessed as cell growth at high concentration
# [23] = tested on: HOP-62; assay: Cytotoxicity against human HOP62 assessed as cell growth at high concentration
# [24] = tested on: Staphylococcus aureus; assay: Antibacterial activity against Staphylococcus aureus MTCC 96 after 24 hrs by broth dilution method; settings: MTCC 96, 24 h
# [25] = tested on: Streptococcus pyogenes; assay: Antibacterial activity against Streptococcus pyogenes MTCC 442 at 250 ug/ml after 24 hrs by Kirby-Bauer method; settings: MTCC 442, 24 h, read-out: IZ
# [26] = tested on: Candida albicans; assay: Antifungal activity against Candida albicans MTCC 227 at 250 ug/ml after 74 hrs by Kirby-Bauer method; settings: MTCC 227, 74 h, read-out: IZ
# [27] = tested on: Malme-3M; assay: Cytotoxicity against human MALME-3M assessed as cell growth at high concentration
# [28] = tested on: SK-OV-3; assay: Cytotoxicity against human SKOV3 assessed as cell growth at high concentration
# [29] = tested on: PC-3; assay: Cytotoxicity against human PC3 assessed as cell growth at high concentration
# [30] = tested on: Streptococcus pyogenes; assay: Antibacterial activity against Streptococcus pyogenes MTCC 442 after 24 hrs by broth dilution method; settings: MTCC 442, 24 h
# [31] = tested on: SK-MEL-2; assay: Cytotoxicity against human SK-MEL-2 assessed as cell growth at high concentration
# [32] = tested on: NCI-H226; assay: Cytotoxicity against human NCI-H226 assessed as cell growth at high concentration
# [33] = tested on: A498; assay: Cytotoxicity against human A498 assessed as cell growth at high concentration
# [34] = tested on: SF-268; assay: Cytotoxicity against human SF268 assessed as cell growth at high concentration
# [35] = tested on: RXF 393; assay: Cytotoxicity against human RXF393 assessed as cell growth at high concentration
# [36] = tested on: Aspergillus niger; assay: Antifungal activity against Aspergillus niger MTCC 282 at 250 ug/ml after 74 hrs by Kirby-Bauer method; settings: MTCC 282, 74 h, read-out: IZ
# [37] = tested on: OVCAR-8; assay: Cytotoxicity against human OVCAR8 assessed as cell growth at high concentration
# [38] = tested on: OVCAR-4; assay: Cytotoxicity against human OVCAR4 assessed as cell growth at high concentration
# [39] = tested on: MCF7; assay: Cytotoxicity against human MCF7 assessed as cell growth at high concentration
# [40] = tested on: Staphylococcus aureus; assay: Antibacterial activity against Staphylococcus aureus MTCC 96 at 250 ug/ml after 24 hrs by Kirby-Bauer method; settings: MTCC 96, 24 h, read-out: IZ
# [41] = tested on: BT-549; assay: Cytotoxicity against human BT549 assessed as cell growth at high concentration
# [42] = tested on: Escherichia coli; assay: Antibacterial activity against Escherichia coli MTCC 443 at 250 ug/ml after 24 hrs by Kirby-Bauer method; settings: MTCC 443, 24 h, read-out: IZ
# [43] = tested on: SF-295; assay: Cytotoxicity against human SF295 assessed as cell growth at high concentration
# [44] = tested on: Escherichia coli; assay: Antibacterial activity against Escherichia coli MTCC 443 after 24 hrs by broth dilution method; settings: MTCC 443, 24 h
# [45] = tested on: Aspergillus clavatus; assay: Antifungal activity against Aspergillus clavatus MTCC 1323
# [46] = tested on: Aspergillus niger; assay: Antifungal activity against Aspergillus niger MTCC 282
# [47] = tested on: HT-29; assay: Cytotoxicity against human HT-29 assessed as cell growth at high concentration
# [48] = tested on: NCI-H460; assay: Cytotoxicity against human NCI-H460 assessed as cell growth at high concentration
# [49] = tested on: Aspergillus clavatus; assay: Antifungal activity against Aspergillus clavatus MTCC 1323 at 250 ug/ml after 74 hrs by Kirby-Bauer method; settings: MTCC 1323, 74 h, read-out: IZ
# [50] = tested on: DU-145; assay: Cytotoxicity against human DU145 assessed as cell growth at high concentration
# [51] = tested on: OVCAR-3; assay: Cytotoxicity against human OVCAR3 assessed as cell growth at high concentration
# [52] = tested on: KM12; assay: Cytotoxicity against human KM12 assessed as cell growth at high concentration
# [53] = tested on: UACC-62; assay: Cytotoxicity against human UACC62 assessed as cell growth at high concentration
# [54] = tested on: NCI-H522; assay: Cytotoxicity against human NCI-H522 assessed as cell growth at high concentration
# [55] = tested on: MDA-MB-231; assay: Cytotoxicity against human MDA-MB-231 assessed as cell growth at high concentration
# [56] = Cytotoxicity against human NCI-ADR-RES assessed as cell growth at high concentration
# [57] = tested on: HCT-15; assay: Cytotoxicity against human HCT15 assessed as cell growth at high concentration
# [58] = tested on: SR; assay: Cytotoxicity against human SR assessed as cell growth at high concentration
# [59] = tested on: U-251; assay: Cytotoxicity against human U251 assessed as cell growth at high concentration
# [60] = tested on: SF-539; assay: Cytotoxicity against human SF539 assessed as cell growth at high concentration
# [61] = tested on: NCI-H23; assay: Cytotoxicity against human NCI-H23 assessed as cell growth at high concentration
# [62] = tested on: NCI-H322M; assay: Cytotoxicity against human NCI-H322M assessed as cell growth at high concentration
# [63] = tested on: 786-0; assay: Cytotoxicity against human 786-0 assessed as cell growth at high concentration
# [64] = tested on: MDA-MB-435; assay: Cytotoxicity against human MDA-MB-435 assessed as cell growth at high concentration
# [65] = tested on: CAKI-1; assay: Cytotoxicity against human Caki1 assessed as cell growth at high concentration
# [66] = tested on: IGROV-1; assay: Cytotoxicity against human IGROV1 assessed as cell growth at high concentration
# [67] = tested on: HL-60(TB); assay: Cytotoxicity against human HL-60(TB) assessed as cell growth at high concentration
# [68] = tested on: CCRF-CEM; assay: Cytotoxicity against human CCRF-CEM assessed as cell growth at high concentration
# [69] = tested on: MOLT-4; assay: Cytotoxicity against human MOLT4 assessed as cell growth at high concentration
# [70] = tested on: Pseudomonas aeruginosa; assay: Antibacterial activity against Pseudomonas aeruginosa MTCC 424 at 250 ug/ml after 24 hrs by Kirby-Bauer method; settings: MTCC 424, 24 h, read-out: IZ
# [71] = tested on: LOX IMVI; assay: Cytotoxicity against human LOXIMVI assessed as cell growth at high concentration
smiles,measurement,setting,value
[O-]c1on[n+](-c2ccc(Cc3ccc(-[n+]4noc([O-])c4CN4CCOCC4)cc3)cc2)c1CN1CCOCC1,Activity,[1],72.63%
same,Activity,[2],69.06%
same,Activity,[3],60.49%
same,Activity,[4],69.86%
same,Activity,[5],44.31%
same,Activity,[6],64.02%
same,Activity,[7],80.32%
same,Activity,[8],86.48%
same,Activity,[9],53.16%
same,Activity,[10],80.48%
same,Activity,[11],74.48%
same,MIC,[12],500 µg/mL
same,MIC,[13],125 µg/mL
same,Activity,[14],67.72%
same,Activity,[15],69.54%
same,Activity,[16],99.94%
same,Activity,[17],56.09%
same,Activity,[18],75.14%
same,Activity,[19],63.75%
same,Activity,[20],26.39%
same,Activity,[21],74.89%
same,Activity,[22],11.42%
same,Activity,[23],77%
same,MIC,[24],100 µg/mL
same,zone of inhibition at 250 µg/mL,[25],19 mm
same,zone of inhibition at 250 µg/mL,[26],23 mm
same,Activity,[27],65.64%
same,Activity,[28],87.98%
same,Activity,[29],56.45%
same,MIC,[30],250 µg/mL
same,Activity,[31],78.61%
same,Activity,[32],85.46%
same,Activity,[33],53.74%
same,Activity,[34],78.33%
same,Activity,[35],72.21%
same,zone of inhibition at 250 µg/mL,[36],23 mm
same,Activity,[37],80.93%
same,Activity,[38],53.91%
same,Activity,[39],45.59%
same,zone of inhibition at 250 µg/mL,[40],21 mm
same,Activity,[41],60.72%
same,zone of inhibition at 250 µg/mL,[42],18 mm
same,Activity,[43],44.14%
same,MIC,[44],250 µg/mL
same,MIC,[45],500 µg/mL
same,MIC,[46],250 µg/mL
same,Activity,[47],89.7%
same,Activity,[48],82.89%
same,zone of inhibition at 250 µg/mL,[49],24 mm
same,Activity,[50],100.94%
same,Activity,[51],89.12%
same,Activity,[52],54.32%
same,Activity,[53],53.38%
same,Activity,[54],36.96%
same,Activity,[55],60.45%
same,Activity,[56],63.42%
same,Activity,[57],78.57%
same,Activity,[58],23.05%
same,Activity,[59],62.81%
same,Activity,[60],77.5%
same,Activity,[61],62.15%
same,Activity,[62],82.54%
same,Activity,[63],73.96%
same,Activity,[64],4.71%
same,Activity,[65],49.27%
same,Activity,[66],62.3%
same,Activity,[67],86.39%
same,Activity,[68],63.93%
same,Activity,[69],68.41%
same,zone of inhibition at 250 µg/mL,[70],21 mm
same,Activity,[71],65.03%
